Molecular target: T1, human PRMT6 (Homo sapiens, UniProt Q96LA8)
T1 construct: Flag-PRMT6-His was eluted with 200 ug/ml FLAG peptide in the same buffer; made in house; host or cells: HEK 293F cells (BacMam baculovirus)
Test: PRMT6 Biochemical Assay
Conditions: biochemical evaluation, peptide substrate
From the text: S-adenosylmethionine (SAM), S-adenosylhomocysteine (SAH), bicine, Tween20, dimethylsulfoxide (DMSO), bovine skin gelatin (BSG), sodium butyrate and Tris(2-carboxyethyl)phosphine hydrochloride solution (TCEP) were purchased from Sigma-Aldrich at the highest level of purity possible. ^3H-SAM was purchase from American Radiolabeled Chemicals with a specific activity of 80 Ci/mmol. 384-well streptavidin Flashplates were purchased from PerkinElmer.
Peptide representative of human histone H4 residues 36-50 was synthesized with an N-terminal linker-affinity tag motif and a C-terminal amide cap by 21st Century Biochemicals. The peptide was purified by high-performance liquid chromatography (HPLC) to greater than 95% purity and confirmed by liquid chromatography mass spectrometry (LC-MS). The sequence was Biot-Ahx-[…]-amide and contained a monomethylated lysine at position 44 (SEQ ID NO.: 5). […]
The assays were all performed in a buffer consisting of 20 mM Bicine (pH=7.6), 1 mM TCEP, 0.005% BSG, and 0.002% Tween 20, prepared on the day of use. […] The plates were then read in a PerkinElmer TopCount plate reader to measure the quantity of ^3H-labeled peptide bound to the Flashplate surface, measured as disintegrations per minute (dpm) or alternatively, referred to as counts per minute (cpm). […]

T1 sequence (Q96LA8 with tags, fused parts or gaps): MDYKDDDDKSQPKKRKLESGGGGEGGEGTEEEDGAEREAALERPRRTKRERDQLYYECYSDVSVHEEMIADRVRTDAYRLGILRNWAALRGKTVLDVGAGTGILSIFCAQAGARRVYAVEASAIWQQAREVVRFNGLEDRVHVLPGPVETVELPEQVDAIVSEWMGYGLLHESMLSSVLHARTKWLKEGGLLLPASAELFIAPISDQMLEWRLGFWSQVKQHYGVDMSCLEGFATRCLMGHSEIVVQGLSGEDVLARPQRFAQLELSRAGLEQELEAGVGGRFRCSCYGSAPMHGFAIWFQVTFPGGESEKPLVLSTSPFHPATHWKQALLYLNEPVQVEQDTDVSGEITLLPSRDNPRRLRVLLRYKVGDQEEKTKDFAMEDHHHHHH

SMILES: CN(CCN)Cc1n[nH]c2cccc(OCc3ccccc3)c12 [Compound 1]
- IC50: ≤ 100 nM

Source: patent publication US9943504B2, “Arginine methyltransferase inhibitors and uses thereof” (Epizyme, Inc., priority 2013, dated 2018)
